Measurements: patent publication US20240325330A1, “NEW METHOD TO TREAT ACIDOSIS RELATED DISEASES WITH ACETOACETATE” (INSTITUT NATIONAL DE LA SANTÉ ET DE LA RECHERCHE MÉDICALE, priority 2021, published 2024)

Legend:
[1] = test system: human monocyte-derived macrophages (Mφ, LA-Mφ); assay: Cytokine secretion after LPS stimulation (ELISA); assay type: cell-based; settings: day 5, LPS 16 h, FIG. 3
Protocol: (§1) Peripheral blood mononuclear cells (PBMC) were obtained from healthy human volunteers (Blood collection center, Angers, France; agreement ANG-2017-01) by standard density-gradient centrifugation on lymphocyte separation medium (Eurobio, Courtaboeuf, France). CD14+ monocytes were then isolated by positive magnetic cell-sorting (Miltenyi Biotec, Bergisch Gladbach, Germany). Monocytes (1×10^6 cells/mL) were cultured in complete medium (CM) consisting of RPMI 1640 (Lonza, Verviers, Belgium) supplemented with 10% fetal calf serum (FCS) (Eurobio), 2 mM L-glutamine, 1 mM sodium pyruvate, 0.1 mM non-essential amino acids, 10 mM HEPES, 100 U/mL penicillin and 100 μg/mL streptomycin (all from Lonza) in the presence of 50 ng/mL GM-CSF (R&D Systems, Minneapolis, MN).
Experiments were performed in the presence of 10 mM lactic acid (Sigma-Aldrich, St Louis, MO) resulting in a pHe of 6.5 to generate LA-Mφ (lactic acidosis conditioning), 12.35 mM HCl to reach a final pHe of 6.5 and to generate HCl-Mφ(acidosis conditioning), 10 mM sodium lactate (Sigma-Aldrich) to generate lactate-Mφ (lactosis conditioning, pH 7.3), in the absence or presence of 5 mM lithium acetoacetate (AcAc) (Sigma-Aldrich, St Louis, MO).
Day 5 GM-Mϕ, GM+LA-Mϕ and GM+LA-Mϕ+AcAc were stimulated with 200 ng/mL LPS (Sigma-Aldrich). Cytokines were quantified by ELISA (R&D Systems) in the supernatants collected at 16 h.

[2] = test system: human monocytes differentiated into macrophages under lactic acidosis (LA-Mφ); assay: Mitochondrial mass (mtDNA copy number) and NRF2 mRNA expression; assay type: cell-based; settings: data not shown
Source text: (§2) Peripheral blood mononuclear cells (PBMC) were obtained from healthy human volunteers (Blood collection center, Angers, France; agreement ANG-2017-01) by standard density-gradient centrifugation on lymphocyte separation medium (Eurobio, Courtaboeuf, France). CD14+ monocytes were then isolated by positive magnetic cell-sorting (Miltenyi Biotec, Bergisch Gladbach, Germany). […]
Cells were lysed in Trizol reagent (Life Technologies, Thermo Fisher Scientific), and total RNA was extracted with the RNeasy Micro kit (Qiagen, Hilden, Germany) and then reverse-transcribed with the Superscript II reverse transcriptase (Life Technologies). Levels of mRNA encoding the indicated proteins were then analyzed by subjecting the cDNA obtained by reverse transcription to qPCR. Relative quantification was performed by the 2^−ΔΔCT method, with RPS18, EF1A, TBP, RPL13A and PPIA as references. Results are expressed as relative mRNA levels.
Mitochondrial DNA (mtDNA) content was determined by qPCR with primers specific for the ND4 and COX1 genes, and was weighted according to nuclear DNA levels, which were quantified by analyzing […], as previously described (23).

[3] = test system: PBMC from septic shock patients; assay: Intracellular ATP in PBMC from septic shock patients; assay type: cell-based, human; settings: 5 mM AcAc, normalized on 0.5 g/L glucose, FIG. 1B
Protocol: The intracellular levels of ATP in whole-cell lysates were determined with enzymatic assays (Abcam, Cambridge, UK), according to the manufacturer's instructions. ATP was quantified in (i) macrophages generated in the absence (Mφ) or presence of lactic acid (LA-Mφ) or of lactic acid and acetoacetate (LA-Mφ+AcAc), (ii) macrophages with or without depolarized mitochondria (“Depol” and “Pol” populations, respectively) isolated from day 3 LA-Mφ by flow cytometry using MitoTracker Green and MitoTracker Deep Red probes (purity>99%) and, (iii) PBMC isolated from septic shock patients (n=3) were cultured for 24 h in a medium containing 0.5 g/L glucose, supplemented with 5 mM of acetoacetate (AcAc) or with 2 g/L of glucose (Glc). Results are normalized on the condition 0.5 g/L glucose (None).
Peripheral blood mononuclear cells (PBMC) from septic patients and healthy subjects were purified by standard density-gradient centrifugation on lymphocyte separation medium (Eurobio, Courtaboeuf, France). […] After 24 h culture, the percentage of cells with depolarized mitochondria was assessed as described above. After 3 days of culture, intracellular ATP has been quantified as described above.

[4] = test system: PBMC from septic shock patients; assay: Apoptosis of PBMC from septic shock patients (7-AAD, Annexin-V flow cytometry); assay type: cell-based, human; settings: 5 mM AcAc, FIG. 4E
Protocol: Apoptosis was assessed by flow cytometry in freshly purified PBMC or after 3-day culture with or without AcAc. Cells were labeled with 7-AAD, Annexin-V FITC and anti-CD14 APC monoclonal antibody (all from BD Biosciences, San Jose, CA) and apoptotic monocytes were defined as CD14+ Annexin-V+ cells.
Peripheral blood mononuclear cells (PBMC) from septic patients and healthy subjects were purified by standard density-gradient centrifugation on lymphocyte separation medium (Eurobio, Courtaboeuf, France). PBMC were cultured for 24 h in a medium consisting of RPMI 1640 medium with L-glutamine and without glucose (Lonza, Verviers, Belgium) and supplemented with 6% FCS (Eurobio), 3% autologous plasma, 0.5 g/L glucose, 100 U/mL penicillin and 100 μg/mL streptomycin (all from Lonza) in the presence of 2 ng/mL GM-CSF (R&D Systems). In some experiments, the culture medium was supplemented with 5 mM AcAc or adjusted to 4 g/L glucose. After 24 h culture, the percentage of cells with depolarized mitochondria was assessed as described above. After 3 days of culture, intracellular ATP has been quantified as described above.

[5] = test system: human monocytes differentiated into macrophages under lactic acidosis (LA-Mφ); assay: Intracellular ATP levels in macrophages under lactic acidosis; assay type: cell-based; settings: 5 mM AcAc, 10 mM lactic acid, FIG. 1A
Protocol: as §2
The intracellular levels of ATP in whole-cell lysates were determined with enzymatic assays (Abcam, Cambridge, UK), according to the manufacturer's instructions. ATP was quantified in (i) macrophages generated in the absence (Mφ) or presence of lactic acid (LA-Mφ) or of lactic acid and acetoacetate (LA-Mφ+AcAc), (ii) macrophages with or without depolarized mitochondria (“Depol” and “Pol” populations, respectively) isolated from day 3 LA-Mφ by flow cytometry using MitoTracker Green and MitoTracker Deep Red probes (purity>99%) and, (iii) PBMC isolated from septic shock patients (n=3) were cultured for 24 h in a medium containing 0.5 g/L glucose, supplemented with 5 mM of acetoacetate (AcAc) or with 2 g/L of glucose (Glc). […]

[6] = test system: human monocytes differentiated into macrophages under lactic acidosis (LA-Mφ); assay: Mitochondrial membrane potential (MitoTracker Green / Deep Red flow cytometry) in macrophages under lactic acidosis; assay type: cell-based; settings: 5 mM AcAc, 10 mM lactic acid (pHe 6.5), LA-Mφ+AcAc vs LA alone; data not shown
Protocol: as §1, with “MN). […]” for “MN).”
Mitochondrial membrane potential was assessed by incubating with 10 nM MitoTracker Green and 5 nM MitoTracker DeepRed (Thermo Fisher Scientific, Waltham, MA) in PBS containing 1% (w/v) BSA in PBS (PBS/BSA) at 37° C. for 15 min. […] Flow cytometry data were acquired with a FACSCanto II flow cytometer (BD Biosciences, San Jose, CA) and analyzed with FlowJo software (Tree Star, Ashland, OR).

U937 cell line = settings: cited from earlier work

## CC(=O)CC(=O)[O-].[Li+] [AcAc, lithium acetoacetate]
[1]; LA-Mφ+AcAc
  combined effect of AcAc and lactic acid on capacity to produce inflammatory cytokines and trophic factors: acted synergistically
[1]; ELISA
  cytokine phenotype of monocytes differentiated in the presence of AcAc: TNFαhigh IL-1βhigh IL-6high OSMhigh and VEGFhigh phenotype
[2]; LA-Mφ+AcAc (5 mM AcAc, 10 mM lactic acid)
  mitochondrial mass: no reduction of the mitochondrial mass
[2]; LA-Mφ+AcAc relative to LA-Mφ
  expression of NRF2: tend to increase
[3]
  levels of intracellular ATP: increased
[4]
  protection of patient PBMCs from death by apoptosis: drastically protects
[5]
  intracellular levels of ATP: restored the intracellular levels of ATP
[6]
  mitochondrial depolarization: did not exhibit the mitochondrial depolarization
U937 cell line
  IL-6 and TNF production: enhance IL-6 and TNF production
